According to patent US8962918B2, “Polynucleotide sequence of fruit softening associated A-mannosidase and its uses for enhancing fruit shelf life” (National Institute of Plant Genome Research, priority 2008, dated 2015):
“Also recorded” adds a separate entry of the source.

Columns and labels:
[1] = test system: α-mannosidase gene expression; experiment: Geraniol/ACC treatment of seedlings, real-time RT-PCR of mannosidase expression; assay type: in vivo, tomato (Pusa Ruby); details: for regulation of α-mannosidase expression: rin and/or wild type, relative to control
Text: Geraniol is an acyclic dietary monoterpene, having in vitro and in vivo antitumor activity against various cancer cell lines and is therefore considered as a new class of agents for cancer chemoprevention. It was also reported that geraniol interferes with the membrane functions of Candida albicans and Saccharomyces cervisiae. […] This instigated us to further analyze the role of geraniol on α-mannosidase induction in pleiotropic rin mutant. The rin seedlings were fed with 10% geraniol and samples collected.
RNA was isolated according to the Lithium chloride method and quantified using nanodrop (ND-100). 5 μg of total RNA was reverse transcribed to cDNA using superscript II (Invitrogen). Quantitative RT-PCR was performed using light Cycler Version 4.05 (Roche diagnostics) with cyber green. The cycle consisted of initial 10 min Taq activation at 95° C. followed by 45 cycles, consisting of 10 s at 94° C., 10 s at 55° C. and 10 s at 72° C. Then the melt curve analysis was performed to verify the fidelity of the amplification. Using the 2^−ΔΔ CT method, the data is presented as the fold change in gene expression normalized to an endogenous reference gene and relative to the control. The gene encoding actin was used as the endogenous control.
Pusa Ruby seeds were sterilized and germinated on MS medium. After 15 days the seedlings were transferred to a liquid media containing 10 mM geraniol in 20% DMSO or 1 mM ACC (1-aminocyclopropane-1-carboxylic acid) in water. The RNA was isolated from the harvested sample and reverse transcribed to cDNA for real-time RT-PCR analysis. Expression was calculated relative to the control seedlings (0 hr).

[2] = target: T1, tomato α-mannosidase (Solanum lycopersicum, UniProt D3TI68); experiment: N-linked oligosaccharide cleavage, HPAE chromatography; assay type: biochemical; details: incubated at 37° C. overnight, Carbopac PA-1 column
Method: (§1) The temperature and pH optimum for the enzyme was 45° C. and pH 6.0, respectively. […] To identify the nature of the tomato α-mannosidase it was resolved on SDS-PAGE and subjected to PAS staining, the protein stained positive for glycoproteins. […] In order to correlate specific activity at particular ripening stage with the protein accumulation, immunoblot analysis of all the stages was done using polyclonal antibody raised against 70 kD subunit of the protein homologus to α-mannosidase. […] Our finding was further reinforced by a report in Arabidopsis which classified α-mannosidase homologue (Q8LPJ3) into cell wall protein with a signal peptide for secretion. To decipher the role of α-mannosidase on N-glycans and their processing, we targeted three N-linked oligosaccharides (Oligomannose-3, Oligomannose-5 and Oligomannose-9) commonly found in the fruit pericarp. To verify its action on N-glycans, α-mannosidase was incubated with N-linked oligosaccharides at 37° C. overnight and the reaction mixture was resolved on Carbopac PA-1 column.
One μg of protein was incubated with 100 ng each of N-linked oligosaccharides (Dextra, U.K) at 37° C. overnight and the sample was filtered through PVDF membrane to remove the enzyme. 10 μl of the filtered sample was used for the analysis. An HPAE-PAD system (Dionex DX 500 BioLC) equipped with a gradient pump (GP 40), an anion exchange column (Carbopac PA-1, 4×250 mm) an eluant degas module (EDM-2) for pressurizing the eluants with argon was used for the analysis of monosaccharides. The separated monosaccharides were detected by an ED 40 detector equipped with a gold electrode and an Ag/AgCl reference electrode. The resulting chromatographic data was integrated and plotted using a PC based oracle 2 data acquisition system (Indtech Analytical, Bombay), The standard (mannose) was injected at a concentration of 100 nmoles before and after the analysis of each sample to confirm the results. This confirmed the N-glycan processing ability of mannosidase

[3] = cited from earlier work
[4] = target: T1, tomato α-mannosidase; experiment: Mannosidase enzyme assay and biochemical characterization
Method: as §1
(§2) Mannosidase was assayed in one ml of the reaction mixture consisting of 940 μl of MQ, 20 μl of 20 mM substrate (pNP-α-D-mannopyrinoside) and 20 μl aliquot of the enzyme at 37° C. for 15 min along with a blank devoid of the enzyme. The reaction was stopped by adding of 40 μl of 0.5M Na2CO3. The colour developed as result of pNP release was recorded at 405 nm and quantified using a standard curve.

[5] = substrate: O=[N+]([O-])c1ccc(O[C@H]2O[C@H](CO)[C@@H](O)[C@H](O)[C@@H]2O)cc1; experiment: as above; set-up: species or system tomato (Solanum lycopersicum); details: other: purified tomato enzyme; pH 6.0
Method: as §1
as §2, with “The reaction was stopped by adding of 40 μl of 0.5M Na2CO3.” left out

NC1(C(=O)O)CC1 [ACC, 1-aminocyclopropane-1-carboxylic acid]
regulation of α-mannosidase expression ([1]; seedlings): up regulate

CC(=O)N[C@H]1[C@H](O[C@H]2[C@H](O)[C@@H](NC(C)=O)C(O)O[C@@H]2CO)O[C@H](CO)[C@@H](O[C@@H]2O[C@H](CO[C@H]3O[C@H](CO[C@H]4O[C@H](CO)[C@@H](O)[C@H](O)[C@@H]4O)[C@@H](O)[C@H](O[C@H]4O[C@H](CO)[C@@H](O)[C@H](O)[C@@H]4O)[C@@H]3O)[C@@H](O)[C@H](O[C@H]3O[C@H](CO)[C@@H](O)[C@H](O)[C@@H]3O)[C@@H]2O)[C@@H]1O (stereo partly drawn) [Oligomannose-5]
cleavage by α-mannosidase [2]: able to cleave terminal mannose residue/s

CC(=O)N[C@H]1[C@H](O[C@H]2[C@H](O)[C@@H](NC(C)=O)C(O)O[C@@H]2CO)O[C@H](CO)[C@@H](O[C@@H]2O[C@H](CO[C@H]3O[C@H](CO)[C@@H](O)[C@H](O)[C@@H]3O)[C@@H](O)[C@H](O[C@H]3O[C@H](CO)[C@@H](O)[C@H](O)[C@@H]3O)[C@@H]2O)[C@@H]1O (stereo partly drawn) [Oligomannose-3]
cleavage by α-mannosidase [2]: able to cleave terminal mannose residue/s

CC(=O)N[C@H]1[C@H](O[C@H]2[C@H](O)[C@@H](NC(C)=O)C(O)O[C@@H]2CO)O[C@H](CO)[C@@H](O[C@@H]2O[C@H](CO[C@H]3O[C@H](CO[C@H]4O[C@H](CO)[C@@H](O)[C@H](O)[C@@H]4O[C@H]4O[C@H](CO)[C@@H](O)[C@H](O)[C@@H]4O)[C@@H](O)[C@H](O[C@H]4O[C@H](CO)[C@@H](O)[C@H](O)[C@@H]4O[C@H]4O[C@H](CO)[C@@H](O)[C@H](O)[C@@H]4O)[C@@H]3O)[C@@H](O)[C@H](O[C@H]3O[C@H](CO)[C@@H](O)[C@H](O)[C@@H]3O[C@H]3O[C@H](CO)[C@@H](O)[C@H](O)[C@@H]3O[C@H]3O[C@H](CO)[C@@H](O)[C@H](O)[C@@H]3O)[C@@H]2O)[C@@H]1O (stereo partly drawn) [Oligomannose-9]
cleavage by α-mannosidase [2]: able to cleave terminal mannose residue/s

CC(C)=CCC/C(C)=C/CO [geraniol]
solubility in water [3]: not soluble in water
α-mannosidase transcript up regulated ([1]; rin mutant seedlings fed with 10% geraniol, after 30 min): up to 6 fold
up-regulation in mannosidase gene expression ([1]; seedlings, geraniol in 20% DMSO, after 30 min, compared to control (DMSO only)): up to 3 fold
regulation of α-mannosidase expression ([1]; seedlings): upregulated; also recorded: induced

B1: tomato α-mannosidase: enzyme purified from pericarp of breaker stage tomato; SEQ ID NO: 2 (protein, listed as Solanum lycopersicum)
chain: MKNMGKFEIWFLILMVCGLWVVEAKYMVYNTSQGIVSGKLNVHLVPHTHDDVGWLKTVDQYYVGSNNSIQVACVQNVLDSLIPALLADKNRKFIYVEQAFFQRWWRNQSPGMQSTVKQLVNSGQLESINGGWCMHDEAATHYIDMIDQTTLGHKYIKQQFNVTPRIGWQIDPFGTFCCSGIPSGSKGWIRLSFLWDALTTKDREKRKIEKSLEVIWRGSKSLSSSTQIFSGAFPQNYEPPSKFYFEVNDDNSLPVQDDVNLFDYNVQERVNDFVAAALSQANITRTNHIMWTMGTDFKYQYAHTWFRNMDKLIHYVNQDGRVNALYSSPSIYTDAKYALDESWPLKTDDYFPYADRINAYWTGYFTSRPALKLYVRMMSGYYLAARQLEFFKGRIETGPTTEILADALAIAQHHDAVSGTPKQHVADDYAKRLFIGYKQAEDLVSNSLACMVESASASGCKNPQINFKQCPLLNISYCPPTEADLAPGKKLVVVVYNALGWKRTDVVRIPVVNKNVIVEDSTGKEIESQLLPIVKESIVIRNYYAAAYFGESPTSSPKYWLVFTATVPPLGFSSYVITSGKQAVAASIPQTFYKTDGSQSDAVEVGPGNLKLLYSANGAKFTQYFNKRNQVRSSLEQSFSYYSADDGSKDDYKDIQASGAYVFRPNGSFPIHPEGKVPATILRGPLLDEVHQNINSWIYQITRVYKEKEHVEVEFTVGPIPIDNGIGKELVTQIQTDIKSNKTFYTDSNGRDFLKRVRDYRADWDLQVNQPAAGNYYPINLGLFLKDNNNEFSVLVDRSVGGSSLVDGQLELMLHRRLLNDDGRGVAEALNETVCALGKCMGLTVQGKYYIRIDSLGEGAKWRRSFGQEIYSPLLLAFTEQDGDKFTKFPVPTFTGMDPSYSLPDNVAIITLQELEDHTVLLRLAHLYEVDEDKDLSTKASVELKRLFPKRKINKIREMSLSANQERVEMEKKRLKWKAEAPSDLRDVARGGPVDPTKLMVELAPMEIRTFVIDLSQSVPEGWKSHMSL
modifications: Protein sequence of alpha mannosidase
pH optimum [4]: 6.0
temperature optimum [4]: 45 °C
thermal stability without considerable reduction in the activity ([4]; for 1 hr): ≤ 60 °C

B2: tomato α-mannosidase (Solanum lycopersicum) (protein)
chain: KYMVYNTSQGIVSGKLNVHLVPHTHDDVGWLKTVDQYYVGSNNSIQVACVQNVLDSLIPALLADKNRKFIYVEQAFFQRWWRNQSPGMQSTVKQLVNSGQLESINGGWCMHDEAATHYIDMIDQTTLGHKYIKQQFNVTPRIGWQIDPFGTFCCSGIPSGSKGWIRLSFLWDALTTKDREKRKIEKSLEVIWRGSKSLSSSTQIFSGAFPQNYEPPSKFYFEVNDDNSLPVQDDVNLFDYNVQERVNDFVAAALSQANITRTNHIMWTMGTDFKYQYAHTWFRNMDKLIHYVNQDGRVNALYSSPSIYTDAKYALDESWPLKTDDYFPYADRINAYWTGYFTSRPALKLYVRMMSGYYLAARQLEFFKGRIETGPTTEILADALAIAQHHDAVSGTPKQHVADDYAKRLFIGYKQAEDLVSNSLACMVESASASGCKNPQINFKQCPLLNISYCPPTEADLAPGKKLVVVVYNALGWKRTDVVRIPVVNKNVIVEDSTGKEIESQLLPIVKESIVIRNYYAAAYFGESPTSSPKYWLVFTATVPPLGFSSYVITSGKQAVAASIPQTFYKTDGSQSDAVEVGPGNLKLLYSANGAKFTQYFNKRNQVRSSLEQSFSYYSADDGSKDDYKDIQASGAYVFRPNGSFPIHPEGKVPATILRGPLLDEVHQNINSWIYQITRVYKEKEHVEVEFTVGPIPIDNGIGKELVTQIQTDIKSNKTFYTDSNGRDFLKRVRDYRADWDLQVNQPAAGNYYPINLGLFLKDNNNEFSVLVDRSVGGSSLVDGQLELMLHRRLLNDDGRGVAEALNETVCALGKCMGLTVQGKYYIRIDSLGEGAKWRRSFGQEIYSPLLLAFTEQDGDKFTKFPVPTFTGMDPSYSLPDNVAIITLQELEDHTVLLRLAHLYEVDEDKDLSTKASVELKRLFPKRKINKIREMSLSANQERVEMEKKRLKWKAEAPSDLRDVARGGPVDPTKLMVELAPMEIRTFVIDLSQSVPEGWKSHMSL
Km [5]: 4.6 mM
